From patent publication US20040138064A1, “Adjuvant for water soluble herbicides” (priority 2002, published 2004)

Key:
Velvetleaf = assay: Cabinet spray of glyphosate (about 0.63 lb AI per 10 gallons per acre) with or without sulfate adjuvant on velvetleaf; format: in vivo, ipomoea hederacea (L.) jacq. Var. integriuscula gray; conditions: for Velvet Leaf % Control 7 DAT / Velvet Leaf % Control 14 DAT / Velvet Leaf % Control 21 DAT / Velvet Leaf Fresh Weight 21 DAT: no sulfate adjuvant
Excerpt: (§1) The formulations shown in Table 1 and Table 2 are either glyphosate and ammonium sulfate (AMS) or glyphosate and isopropylammonium sulfate (MIPAS). In Table 1 and Table 2, 0 ppm hardness refers to the absence of minerals such as calcium ions and 1000 ppm hardness refers to the amount of calcium ions present. The moles of sulfate indicate the amount of isopropylammonium sulfate or ammonium sulfate per liter. The aqueous solution was applied to the plots at a level of 10 gallons per acre. The two tested plants were Morningglory Entireleaf ([…]) and Velvetleaf ([…]). The term YBI in the Figures indicates the adjuvant was isopropylammonium sulfate.
(§2) The herbicidal solutions were applied in a cabinet using a Lodrift nozzle having a nozzle size 110015. The spray apparatus was operated at 40 psi using air as the propellant and water as a carrier. The boom height was 13.5 inches. The ground speed was 2.6 miles per hour. The morningglory was at the three-leaf stage when the herbicidal solution was applied. The velvetleaf was 4-6 inches in height when the herbicidal solution was applied. The normalized spray volume was 10 gallons per acre.
(§3) The Figures show values of pounds of ammonium sulfate or isopropylammonium sulfate per hundred gallons. The actual solutions used were nominally ten gallons of the sulfate in water, e.g. one-tenth of the sulfate per hundred gallons of carrier, with twenty fluid ounces of glyphosate. Twenty fluid ounces of glyphosate contains about 0.63 pounds of glyphosate active ingredient (AI) reported as the isopropylammonium. The glyphosate active ingredient (AI) as the isopropylammonium salt is related to the glyphosate acid equivalents (AE) by the formula: (0.7142)(AI)=AE.
(§4) FIGS. 1 and 3 show the fresh weight of morningglory and velvetleaf, respectively. The fresh weight was determined by cutting the stem of the plant flush with the ground and weighing the plant. The weight is reported as grams per pot since a single plant was grown in each pot. FIGS. 2 and 4 show the percent control at 7, 14 and 21 days for morningglory and velvetleaf, respectively.
(§5) Bartlett's test (commonly used in the agricultural business) was used to statistically analyze the results.

Morningglory Entireleaf = assay: Cabinet spray of glyphosate (about 0.63 lb AI per 10 gallons per acre) with or without sulfate adjuvant on morningglory; format: in vivo, abutilon theophrasti medik; conditions: for Morning Glory % Control 7 DAT / Morning Glory % Control 14 DAT / Morning Glory % Control 21 DAT / Morning Glory Fresh Weight 21 DAT: no sulfate adjuvant
Excerpt: as §1, §2, §3, §4

soybeans = assay: Greenhouse spray of glyphosate (0.75 lb AI per 10 gallons per acre) with or without sulfate adjuvant on soybean; format: in vivo, Glycine max; conditions: for height reduction of soybean, statistical comparison with the no adjuvant case / weight reduction of soybean, statistical comparison with the no adjuvant case: 0 ppm water hardness and 342 ppm water hardness; for Plant Height Soybean % Control 15 DAT / Plant Weight Soybean % Control 15 DAT: no sulfate adjuvant
Excerpt: (§6) The formulations shown in Table 3 and Table 4 are either glyphosate and ammonium sulfate (AMS) or glyphosate and isopropylammonium sulfate (MIPAS). In Table 3 and Table 4, 0 ppm hardness refers to the absence of minerals such as calcium ions and 342 ppm hardness refers to the amount of calcium ions present. The moles of sulfate indicate the amount of isopropylammonium sulfate or ammonium sulfate per liter. The aqueous solution was applied to the plots at a level of 10 gallons per acre. The two tested plants were soybeans (Glycine max) and grain sorghum (Milo), (Sorghum bicolar).
(§7) The herbicidal solutions were applied in a greenhouse using a Spray chamber with an FF nozzle having a nozzle size 8001EVS. The spray apparatus was operated at 38 psi and the height of the nozzle was 9.75 inches. The watering frequency was every 6 hours for 5 minutes. The daytime temperature was 85° F. and the nighttime temperature was 70° F. with a 16 hour day. The soybean was 4-4.5 inches with one trifoliate leaf present when the herbicidal solution was applied. The grain sorghum was 4-8 inches with 3-4 leaves present when the herbicidal solution was applied.
(§8) The Figures show values of moles of ammonium sulfate or isopropylammonium sulfate per liter. The actual solution used on the grain sorghum contained 0.13 pounds of glyphosate active ingredient per 10 gallons of water per acre. The actual solution used on the soybean contained 0.75 pounds glyphosate active ingredient per 10 gallons of water per acre.
(§9) FIGS. 5 and 9 show the height of sorghum and soybean, respectively, when distilled water was used, as a percent reduction of the height of the control after 15 days. FIGS. 6 and 10 show the height of sorghum and soybean, respectively, when hard water was used, as a percent reduction of the height of the control after 15 days. FIGS. 7 and 11 show the fresh weight of sorghum and soybean, respectively, when distilled water was used, as a percent reduction of the weight of the control after 15 days. FIGS. 8 and 12 show the fresh weight of sorghum and soybean, respectively, when hard water was used, as a percent reduction of the weight of the control after 15 days. The plants were harvested and weighed to determine the fresh weight.

grain sorghum (Milo) = assay: Greenhouse spray of glyphosate (0.13 lb AI per 10 gallons per acre) with or without sulfate adjuvant on grain sorghum; format: in vivo, Sorghum bicolar; conditions: for Plant Height Sorghum % Control 15 DAT / Plant Weight Sorghum % Control 15 DAT: no sulfate adjuvant
Excerpt: as §6, §7, §8, §9, §5

[1] = water hardness 0 ppm, AMS at the two highest concentrations, all MIPAS concentrations
[2] = water hardness 1000 ppm, higher concentrations of AMS, all MIPAS
[3] = water hardness 1000 ppm, two higher concentrations of AMS, all the MIPAS treatments
[4] = 342 ppm of water hardness, three highest concentrations of MIPAS, two higher concentrations of AMS

N.N.O=S(=O)(O)O [AMS, ammonium sulfate]
fresh weight of velvetleaf, statistical comparison with no adjuvant (Bartlett's test) (Velvetleaf; water hardness 0 ppm): no statistical difference
fresh weight of velvetleaf, statistical comparison with no adjuvant (Bartlett's test) (Velvetleaf; water hardness 1000 ppm, MIPAS at the two higher concentrations): no statistical difference
height reduction of morningglory, statistical comparison with the no adjuvant case (Bartlett's test) (Morningglory Entireleaf; [1]): statistically different from the no adjuvant case
fresh weight of morningglory, statistical comparison with the no adjuvant case (Bartlett's test) (Morningglory Entireleaf; [2]): statistical difference
height reduction of morningglory, statistical comparison with the no adjuvant case (Bartlett's test) (Morningglory Entireleaf; [3]): statistically different from the no adjuvant case
height reduction of soybean, statistical comparison with the no adjuvant case (soybeans): not significantly different from the no adjuvant case
weight reduction of soybean, statistical comparison with the no adjuvant case (soybeans): not significantly different from the no adjuvant case
fresh weight of sorghum, statistical comparison with the no adjuvant case (Bartlett's test) (grain sorghum (Milo); 0 ppm water hardness): not significantly different from the no adjuvant case
height reduction of sorghum, statistical comparison with the no adjuvant case (Bartlett's test) (grain sorghum (Milo); 0 ppm water hardness): not significantly different from the no adjuvant case
fresh weight of sorghum, statistical comparison with the no adjuvant case (Bartlett's test) (grain sorghum (Milo); [4]): significantly different than the no adjuvant case

CC(C)N.CC(C)N.O=S(=O)(O)O [MIPAS, isopropylammonium sulfate]
fresh weight of velvetleaf, statistical comparison with no adjuvant (Bartlett's test) (Velvetleaf; water hardness 0 ppm): no statistical difference
height reduction of velvetleaf, statistical comparison with the no adjuvant case (Bartlett's test) (Velvetleaf; water hardness 0 ppm and 1000 ppm): statistically different from the no adjuvant case
height reduction of velvetleaf, statistical comparison of MIPAS with AMS (Bartlett's test) (Velvetleaf; water hardness 0 ppm, high MIPAS concentrations): statistically different from the AMS results
fresh weight of velvetleaf, statistical comparison of MIPAS with AMS (Bartlett's test) (Velvetleaf; water hardness 1000 ppm): no statistically significant difference
height reduction of velvetleaf, statistical comparison of MIPAS with AMS (Bartlett's test) (Velvetleaf; water hardness 1000 ppm): not statistically significant
fresh weight of morningglory, statistical comparison of MIPAS with AMS (Bartlett's test) (Morningglory Entireleaf; water hardness 0 ppm): no statistically significant difference
fresh weight of morningglory, statistical comparison with the no adjuvant case (Bartlett's test) (Morningglory Entireleaf; water hardness 0 ppm): statistical difference
height reduction of morningglory, statistical comparison of MIPAS with AMS (Bartlett's test) (Morningglory Entireleaf; water hardness 0 ppm): no statistically significant difference
height reduction of morningglory, statistical comparison with the no adjuvant case (Bartlett's test) (Morningglory Entireleaf; [1]): statistically different from the no adjuvant case
fresh weight of morningglory, statistical comparison of MIPAS with AMS (Bartlett's test) (Morningglory Entireleaf; water hardness 1000 ppm): no statistically significant difference
height reduction of morningglory, statistical comparison of MIPAS with AMS (Bartlett's test) (Morningglory Entireleaf; water hardness 1000 ppm): not statistically significant
fresh weight of morningglory, statistical comparison with the no adjuvant case (Bartlett's test) (Morningglory Entireleaf; [2]): statistically different from the no adjuvant case
height reduction of morningglory, statistical comparison with the no adjuvant case (Bartlett's test) (Morningglory Entireleaf; [3]): statistically different from the no adjuvant case
height reduction of soybean, statistical comparison with the no adjuvant case (soybeans): not significantly different from the no adjuvant case
weight reduction of soybean, statistical comparison with the no adjuvant case (soybeans): not significantly different from the no adjuvant case
fresh weight of sorghum, statistical comparison with the no adjuvant case (Bartlett's test) (grain sorghum (Milo); 0 ppm water hardness): not significantly different from the no adjuvant case
height reduction of sorghum, statistical comparison with the no adjuvant case (Bartlett's test) (grain sorghum (Milo); 0 ppm water hardness): not significantly different from the no adjuvant case
fresh weight of sorghum, statistical comparison of MIPAS with AMS (Bartlett's test) (grain sorghum (Milo); 342 ppm of water hardness): not significantly different from each other
height reduction of sorghum, statistical comparison of MIPAS with AMS (Bartlett's test) (grain sorghum (Milo); 342 ppm of water hardness): not significantly different than the AMS results
height reduction of sorghum, statistical comparison with the no adjuvant case (Bartlett's test) (grain sorghum (Milo); 342 ppm of water hardness): significantly different than the no adjuvant case
fresh weight of sorghum, statistical comparison with the no adjuvant case (Bartlett's test) (grain sorghum (Milo); [4]): significantly different than the no adjuvant case

O=C(O)CNCP(=O)(O)O [Glyphosate, N-phosphonomethylglycine]
Velvet Leaf % Control 7 DAT (Velvetleaf; water hardness 0 ppm): 52%
Velvet Leaf % Control 14 DAT (Velvetleaf; water hardness 0 ppm): 84%
Velvet Leaf % Control 21 DAT (Velvetleaf; water hardness 0 ppm): 88%
Velvet Leaf Fresh Weight 21 DAT (Velvetleaf; water hardness 0 ppm): 1.1 grams per pot
Velvet Leaf % Control 7 DAT (Velvetleaf; water hardness 1000 ppm): 48%
Velvet Leaf % Control 14 DAT (Velvetleaf; water hardness 1000 ppm): 56%
Velvet Leaf % Control 21 DAT (Velvetleaf; water hardness 1000 ppm): 52%
Velvet Leaf Fresh Weight 21 DAT (Velvetleaf; water hardness 1000 ppm): 1.8 grams per pot
Morning Glory % Control 7 DAT (Morningglory Entireleaf; water hardness 0 ppm): 56%
Morning Glory % Control 14 DAT (Morningglory Entireleaf; water hardness 0 ppm): 56%
Morning Glory % Control 21 DAT (Morningglory Entireleaf; water hardness 0 ppm): 50%
Morning Glory Fresh Weight 21 DAT (Morningglory Entireleaf; water hardness 0 ppm): 1.4 grams per pot
Morning Glory % Control 7 DAT (Morningglory Entireleaf; water hardness 1000 ppm): 51%
Morning Glory % Control 14 DAT (Morningglory Entireleaf; water hardness 1000 ppm): 48%
Morning Glory % Control 21 DAT (Morningglory Entireleaf; water hardness 1000 ppm): 46%
Morning Glory Fresh Weight 21 DAT (Morningglory Entireleaf; water hardness 1000 ppm): 1.9 grams per pot
Plant Height Soybean % Control 15 DAT (soybeans; water hardness 0 ppm): 47.55%
Plant Weight Soybean % Control 15 DAT (soybeans; water hardness 0 ppm): 75.60%
Plant Height Soybean % Control 15 DAT (soybeans; water hardness 342 ppm): 47.77%
Plant Weight Soybean % Control 15 DAT (soybeans; water hardness 342 ppm): 59.20%
Plant Height Sorghum % Control 15 DAT (grain sorghum (Milo); water hardness 0 ppm): 41.04%
Plant Weight Sorghum % Control 15 DAT (grain sorghum (Milo); water hardness 0 ppm): 59.86%
Plant Height Sorghum % Control 15 DAT (grain sorghum (Milo); water hardness 342 ppm): 14.55%
Plant Weight Sorghum % Control 15 DAT (grain sorghum (Milo); water hardness 342 ppm): 40.97%
